Reference: patent publication US6448286B1, “Imino pyrrolidine derivatives useful as nitric oxide synthase inhibitors” (G.D. Searle & Co., priority 1993, dated 2002)
Where a name gives a salt, the structure may show the parent alone. Read-outs that look alike come from different tables or passages of the source.

Experiments:
[1] = target: T1, Mouse inducible nitric oxide synthase (miNOS) (Mus musculus, UniProt P29477); test: biochemical; conditions: for iNOS, % @ 10 μM: 10 μM compound; for IC50: read-out: iNOS
T1 construct: prepared from an extract of LPS-treated RAW 264.7 cells and partially purified by DEAE-Sepharose chromatography; endogenous in cells; host or cells: LPS-treated RAW 264.7 cells (mouse macrophage line)
T1 sequence (P29477 whole entry): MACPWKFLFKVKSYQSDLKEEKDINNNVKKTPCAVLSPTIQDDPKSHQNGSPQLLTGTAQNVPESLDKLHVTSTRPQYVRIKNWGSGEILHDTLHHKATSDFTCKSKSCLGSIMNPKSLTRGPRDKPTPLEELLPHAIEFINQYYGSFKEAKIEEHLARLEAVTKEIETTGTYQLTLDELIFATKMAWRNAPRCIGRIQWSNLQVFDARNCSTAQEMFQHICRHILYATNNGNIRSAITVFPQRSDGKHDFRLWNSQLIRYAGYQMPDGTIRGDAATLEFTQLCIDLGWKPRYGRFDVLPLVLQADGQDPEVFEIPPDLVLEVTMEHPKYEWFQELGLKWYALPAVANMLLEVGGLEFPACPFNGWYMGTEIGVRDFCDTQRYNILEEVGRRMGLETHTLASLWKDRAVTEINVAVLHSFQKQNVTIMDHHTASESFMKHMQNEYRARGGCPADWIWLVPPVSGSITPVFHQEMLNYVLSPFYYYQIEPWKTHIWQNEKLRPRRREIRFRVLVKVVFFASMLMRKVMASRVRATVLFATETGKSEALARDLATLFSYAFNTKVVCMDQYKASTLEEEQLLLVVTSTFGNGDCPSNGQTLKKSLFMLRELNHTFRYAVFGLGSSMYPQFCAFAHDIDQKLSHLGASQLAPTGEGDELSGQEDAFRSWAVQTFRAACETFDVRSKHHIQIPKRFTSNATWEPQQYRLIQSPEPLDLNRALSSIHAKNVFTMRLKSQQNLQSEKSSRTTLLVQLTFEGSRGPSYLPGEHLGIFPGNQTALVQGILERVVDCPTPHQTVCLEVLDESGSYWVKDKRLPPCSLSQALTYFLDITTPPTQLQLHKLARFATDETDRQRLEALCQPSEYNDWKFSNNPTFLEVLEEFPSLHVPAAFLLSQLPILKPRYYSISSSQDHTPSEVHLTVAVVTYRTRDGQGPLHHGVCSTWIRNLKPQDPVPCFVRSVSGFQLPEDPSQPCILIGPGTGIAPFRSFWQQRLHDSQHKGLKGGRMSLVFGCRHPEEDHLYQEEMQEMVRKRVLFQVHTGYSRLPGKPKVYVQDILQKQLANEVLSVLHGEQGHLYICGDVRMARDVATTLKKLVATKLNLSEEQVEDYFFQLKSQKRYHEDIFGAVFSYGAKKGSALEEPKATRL
Protocol: Nitric oxide synthase activity was measured by monitoring the conversion of [3H]-arginine to [3H]-citrulline. Mouse inducible nitric oxide synthase (miNOS) was prepared from an extract of LPS-treated RAW 264.7 cells and partially purified by DEAE-Sepharose chromatography. […] Enzyme and inhibitors were incubated at 37° C. for 15 minutes in a reaction volume of 100 mL with the following components added to start the reaction: 50 mM Tris (pH 7.6), 1 mg/ml bovine serum albumin, 1 mM DTT, 2 mM CaCl2, 10 mM FAD, 10 mM tetrahydrobiopterin, 30 mM L-arginine containing L-[2,3-3H]-arginine at 300 cpm/pmole and 1 mM NADPH. […] The reaction was terminated by addition of cold stop buffer containing 10 mM EGTA, 100 mM HEPES, pH 5.5 and 1 mM citrulline. [3H]-Citrulline was separated by chromatography on Dowex 50W X-8 cation exchange resin and radioactivity determined with a liquid scintillation counter.

[2] = target: T2, Rat brain constitutive nitric oxide synthase (rnNOS) (Rattus norvegicus, UniProt P29476); test: Citrulline assay for nitric oxide synthase (cNOS); format: biochemical
T2 construct: prepared from an extract of rat cerebellum and partially purified by DEAE-Sepharose chromatography; from tissue; host or cells: rat cerebellum
T2 sequence (P29476 whole entry): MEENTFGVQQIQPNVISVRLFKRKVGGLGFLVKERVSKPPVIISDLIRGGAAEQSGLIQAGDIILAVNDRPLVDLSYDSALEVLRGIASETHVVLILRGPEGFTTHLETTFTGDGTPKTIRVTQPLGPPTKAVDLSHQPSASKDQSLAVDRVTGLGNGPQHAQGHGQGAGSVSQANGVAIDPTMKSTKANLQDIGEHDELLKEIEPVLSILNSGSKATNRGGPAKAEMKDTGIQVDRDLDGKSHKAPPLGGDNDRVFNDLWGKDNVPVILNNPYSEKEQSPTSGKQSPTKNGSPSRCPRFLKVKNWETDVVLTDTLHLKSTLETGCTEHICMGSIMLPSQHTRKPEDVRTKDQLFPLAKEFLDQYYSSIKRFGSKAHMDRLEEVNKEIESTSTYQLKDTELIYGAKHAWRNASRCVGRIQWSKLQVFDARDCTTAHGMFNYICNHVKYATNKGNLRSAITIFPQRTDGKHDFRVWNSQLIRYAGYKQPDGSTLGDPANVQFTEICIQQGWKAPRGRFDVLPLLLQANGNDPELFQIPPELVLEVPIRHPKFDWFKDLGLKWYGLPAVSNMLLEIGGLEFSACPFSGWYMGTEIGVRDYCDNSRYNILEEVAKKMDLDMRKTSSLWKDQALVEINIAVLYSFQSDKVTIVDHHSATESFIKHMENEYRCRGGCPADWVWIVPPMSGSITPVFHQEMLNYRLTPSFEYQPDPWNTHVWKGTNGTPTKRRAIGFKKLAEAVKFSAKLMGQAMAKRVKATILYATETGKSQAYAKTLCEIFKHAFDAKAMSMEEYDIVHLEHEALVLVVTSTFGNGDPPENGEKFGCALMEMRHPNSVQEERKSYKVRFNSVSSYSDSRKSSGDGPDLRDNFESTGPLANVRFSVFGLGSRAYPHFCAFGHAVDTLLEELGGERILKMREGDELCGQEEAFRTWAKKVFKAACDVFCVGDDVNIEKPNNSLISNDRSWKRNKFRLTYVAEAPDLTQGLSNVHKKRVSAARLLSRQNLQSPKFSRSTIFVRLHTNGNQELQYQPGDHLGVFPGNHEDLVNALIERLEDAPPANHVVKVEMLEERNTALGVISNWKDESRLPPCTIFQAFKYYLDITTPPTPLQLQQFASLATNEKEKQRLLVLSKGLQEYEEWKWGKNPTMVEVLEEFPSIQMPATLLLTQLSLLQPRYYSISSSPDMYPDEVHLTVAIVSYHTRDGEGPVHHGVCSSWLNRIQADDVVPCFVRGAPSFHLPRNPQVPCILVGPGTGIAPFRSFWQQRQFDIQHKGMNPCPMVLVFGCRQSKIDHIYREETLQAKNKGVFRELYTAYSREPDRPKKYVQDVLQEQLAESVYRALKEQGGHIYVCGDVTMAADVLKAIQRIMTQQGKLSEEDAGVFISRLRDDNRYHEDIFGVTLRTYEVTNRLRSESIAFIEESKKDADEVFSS
Protocol: Nitric oxide synthase activity was measured by monitoring the conversion of [3H]-arginine to [3H]-citrulline. Mouse inducible nitric oxide synthase (miNOS) was prepared from an extract of LPS-treated RAW 264.7 cells and partially purified by DEAE-Sepharose chromatography. Rat brain constitutive nitric oxide synthase (rnNOS) was prepared from an extract of rat cerebellum and partially purified by DEAE-Sepharose chromatography. Enzyme and inhibitors were incubated at 37° C. for 15 minutes in a reaction volume of […] with the following components added to start the reaction: 50 mM Tris (pH 7.6), 1 mg/ml bovine serum albumin, 1 mM DTT, 2 mM CaCl2, 10 mM FAD, 10 mM tetrahydrobiopterin, […] L-arginine containing L-[2,3-3H]-arginine at 300 cpm/pmole and 1 mM NADPH. For constitutive NOS, 50 nM calmodulin was also added. The reaction was terminated by addition of cold stop buffer containing 10 mM EGTA, 100 mM HEPES, pH 5.5 and 1 mM citrulline. [3H]-Citrulline was separated by chromatography on Dowex 50W X-8 cation exchange resin and radioactivity determined with a liquid scintillation counter.

[3] = system: intracellular iNOS in LPS-induced RAW 264.7 cells; test: Raw cell nitrite assay; format: cell-based; conditions: Mus musculus, read-out: Raw Cell IC50
Protocol: RAW 264.7 cells are plated to confluency on a 96-well tissue culture plate grown overnight (17h) in the presence of LPS to induce NOS. […] The media was removed from each well and the cells are washed twice with Krebs-Ringers-Hepes (25 mM, pH 7.4) with 2 mg/ml glucose. The cells are then placed on ice and incubated with […] of buffer containing L-arginine (30 mM) +/− inhibitors for 1 h. The assay is initiated by warming the plate to 37° C. in a water bath for 1 h. […] To terminate the cellular assay, the plate of cells is placed on ice and the nitrite-containing buffer removed and analyzed for nitrite using a previously published fluorescent determination for nitrite. […] All values are the average of triplicate wells and are compared to a background-subtracted induced set of cells (100% value).

[4] = system: LPS-induced increase in plasma nitrites; test: In vivo assay: endotoxin (LPS)-induced plasma nitrites in rat; conditions: Low Endotoxin in Rat Model
Protocol: Rats were treated with an intraperitoneal injection of 10 mg/kg of endotoxin (LPS) with or without oral administration of the nitric oxice synthase inhibitors. Plasma nitrites were measured 5 hours post-treatment.
IP is the abbreviation for 2-iminopiperidine. LPS is the abbreviation for endotoxin

[5] = printed as % only (inhibition not stated)
[6] = conversion of [3H]-arginine to [3H]-citrulline, 37° C., 15 minutes
[7] = RAW264.7, nitrite production, RAW 264.7 cells, LPS-induced, 1 h at 37° C.
[8] = conversion of [3H]-arginine to [3H]-citrulline, 50 nM calmodulin added, read-out: cNOS IC50
[9] = 100 μM compound, printed as % only (inhibition not stated)

Compound | IC50 [1, 6] | IC50 [2] | IC50 ([3]; RAW264.7, 1 h) | other results
Cl.N=C1CC(C(=O)O)CCN1 (centres unmarked) |  |  |  | melting point: 230 to 234 °C
CC1CCC(=N)NC1 (centres unmarked) (as salt: acetate) [Example 7, 2-Imino-5-methylpiperidine acetate] |  |  |  | melting point: 175 to 178 °C
CC1CCCNC1=N (centres unmarked) (as salt: acetate) [Example 9, 2-imino-3-methylpiperidine acetate] |  |  |  | melting point: 88 to 100 °C
CC1CC(=N)NC(C)C1 (centres unmarked) (as salt: acetate) [Example 10, 2-imino-4,6-dimethylpiperidine acetate] |  |  |  | melting point: 163 to 166 °C
N=C1NCCCC1O (centres unmarked) (as salt: acetate) [Example 11, 2-Imino-3-hydroxypiperidine acetate] |  |  |  | melting point: 128 to 130 °C
CC1CCC(O)C(=N)N1 (centres unmarked) (as salt: acetate) [Example 277, 3-hydroxy-2-imino-6-methylpiperidine acetate] |  |  |  | melting point: 158 to 160 °C
CN=C1CCCCCN1 (as salt: hydroiodid) |  |  |  | melting point: 169 to 171 °C
CN1CCCCC1=N (as salt: hydroiodid) |  |  |  | melting point: 157 to 158 °C
CN1CCCCCC1=N (as salt: hydroiodid) |  |  |  | melting point: 137 to 139 °C
Cl.N=C1NC[C@H]2CCCC[C@H]12 (relative stereo) [Example 173, (trans)-octahydro-2H-isoindol-1-imine, monohydrochloride] |  |  |  | iNOS, % @ 10 μM [1, 5]: 42% @ 10 μM
NC1=NCCCCCC1 [Example 1, 2-Imino-heptamethyleneimine hydrochloride] | 2.1 µM | 13.3 µM | 60 µM | 
N=C1CCCCCCCN1 [Example 2, 2-Imino-octamethyleneimine hydrochloride] | 2.2 µM | 9.9 µM | > 1000 µM | 
Cl.N=C1CCC2=C(CCCC2)N1 [Example 3, 3,4,5,6,7,8-hexahydro-2[1H]-quinolineimine hydroiodide] |  |  |  | iNOS, % @ 10 μM [1, 5]: 43% * 10 μM; melting point: 150 to 155 °C
CC1CCNC1=N (centres unmarked) [Example 4, 2-Imino-3-methyltetramethyleneimine hydriodide] | 4.6 µM | 2.4 µM | 14 µM | 
CC1CCC(N)=N1 (centres unmarked) [Example 5, 2-Imino-5-methyltetramethyleneimine hydriodide] | 3.2 µM | 9.4 µM |  | IC50 [3, 7]: 18 µM
CC1CCN=C(N)C1 (centres unmarked) [Example 6, 2-Imino-4-methylpiperidine acetate] |  |  |  | IC50 [1]: 0.055 µM
CC1CCC(N)=NC1 (centres unmarked) [Example 7, 2-Imino-5-methylpiperidine acetate] | 2 µM | 13.3 µM |  | 
CC1CCCC(=N)N1.Cl (centres unmarked) [Example 8, 2-Imino-6-methylpiperidine hydrochloride] | 0.16 µM | 0.99 µM |  | melting point: 160 to 162 °C
CC1CCCN=C1N (centres unmarked) [Example 9, 2-imino-3-methylpiperidine acetate] | 1.5 µM | 2.01 µM |  | 
CC1CC(N)=NC(C)C1 (centres unmarked) [Example 10, 2-imino-4,6-dimethylpiperidine acetate] | 0.043 µM |  |  | IC50 [2, 8]: 0.127 µM
N=C1NCCCC1O (centres unmarked) [Example 11, 2-Imino-3-hydroxypiperidine acetate] | 0.92 µM | 2.77 µM |  | 
NC1=NCCC1 [Example 12, 2-iminopyrrolidine hydrochloride] |  | 32 µM | 1.8 µM | IC50 [1]: 5.1 µM
N=C1CCCCN1 [Example 13, 2-Iminopiperidine hydrochloride] | 0.6 µM | 2 µM | 14 µM | 
NC1=NCCCN1 [Example 14, 2-Iminotetrahydropyrimidine hemihydrosulfate] |  |  | > 1000 µM | IC50 [2, 8]: 23 µM

Compound | IC50 [1, 6] | IC50 [2] | IC50 ([3]; RAW264.7, 1 h) | other results
N=C1NCCN1 [Example 15, 2-Iminoimidazolidine] |  |  |  | iNOS, % @ 10 μM [1, 5]: 8% @ 10 μM
N=C1NCCS1 [Example 16, 2-Iminothiazolidine hydrochloride] |  |  |  | IC50 [3, 7]: 4.3 µM
NC1=NCCCS1 [Example 17, 2-Imino-3-thiapiperidine hydrochloride] | 0.8 µM | 2.7 µM | 28 µM | 
NC1=NCCCO1 [Example 18, hydrochloride] | 0.8 µM | 6 µM | 6 µM | 
N=C1NCCO1 [Example 19, 2-Iminooxazolidine] |  |  |  | iNOS, % @ 10 μM [1, 5]: 42% @ 10 μM
N=C1NCC(CCl)O1 (centres unmarked) [Example 20, 5-Chloromethyl-2-iminooxazolidine] | 1 µM | 5 µM |  | IC50 [3, 7]: 160 µM
N=C1N[C@H]2[C@H](CS[C@H]2CCCCC(=O)O)N1 [Example 21, 2-Iminobiotin] | 40 µM |  | > 1000 µM | IC50 [2, 8]: 500 µM
CCOC(=O)CCCC[C@@H]1SC[C@@H]2NC(=N)NC21 (some centres unmarked) [Example 22, 2-Iminobiotin ethyl ester] | 30 µM | 1300 µM |  | IC50 [3, 7]: > 1000 µM
CN1CCCNC1=N [Example 23, 1-Methyl-2-iminotetrahydropyrimidine] |  |  |  | iNOS, % @ 10 μM [1, 5]: 41% @ 10 μM
CCC1CCCCNC1=N (centres unmarked) [Example 60, 3-ethyl-hexahydro-1H-azepin-2-imine, monohydrochloride] |  | 32 µM | 3.5 µM | 
CC1CCNC(=N)CC1 (centres unmarked) [Example 70, hexahydro-5-methyl-1H-azepin-2-imine, monohydrochloride] | 5.9 µM | 32 µM | 24 µM | 
C[C@@H]1CCCC(N)=NC1 [Example 90, hexahydro-6R-methyl-1H-azepin-2-imine, monohydrochloride] | 7 µM | 46 µM |  | 
Cl.N=C1CCCCC(C2CCCCC2)N1 (centres unmarked) [Example 96, 7-cyclohexyl-hexahydro-1H-azepin-2-imine, monohydrochloride] | 9.3 µM | 1400 µM |  | ED50 ([4]; po, administered p.o.): 3.8 mg/kg
C=CCC1CCCCNC1=N (centres unmarked) [Example 107, hexahydro-3-(2-propenyl)-1H-azepin-2-imine, monohydrochloride] | 3.8 µM | 342 µM | 15 µM | 
C=CCC1CCCCC(=N)N1.Cl (centres unmarked) [Example 108, hexahydro-7-(2-propenyl)-1H-azepin-2-imine, monohydrochloride] |  | 19 µM | 0.57 µM | ED50 ([4]; po, administered p.o.): 3.7 mg/kg
CCCC1CCCCC(=N)N1.Cl (centres unmarked) [Example 114, hexahydro-7-propyl-1H-azepin-2-imine, monohydrochloride] |  | 7.8 µM | 0.55 µM | ED50 ([4]; po, administered p.o.): 3.4 mg/kg
Cl.N=C1CCc2ccccc2N1 [Example 164, 1,2,3,4-tetrahydroquinolin-2-imine, monohydrochloride] |  |  |  | iNOS, % @ 100 μM [1, 9]: 60% @ 100 μM; cNOS, % @ 100 μM [2, 9]: 74% @ 100 μM
CC1(C)CCN=C(N)C1 [Example 170, 4,4-dimethylpiperidin-2-imine, monohydrochloride] |  | 53 µM |  | 
CC1CN=C(N)C1 (centres unmarked) [Example 182, 4-methylpyrrolidin-2-imine, monohydrochloride] | 1.4 µM | 14 µM |  | 
CCCCC1CCCCC(=N)N1.Cl (centres unmarked) [Example 188, 7-butylhexahydro-1H-azepin-2-imine, monohydrochloride] | 0.55 µM | 106 µM | 0.65 µM | ED50 ([4]; po, administered p.o.): 3.7 mg/kg
NC1=NC(c2ccccc2)CCCC1 (centres unmarked) [Example 192, hexahydro-7-phenyl-1H-azepin-2-imine, monohydrochloride] |  | 179 µM | 31 µM | IC50 [1]: 12 µM
CCC(CC)CC1CCCCC(=N)N1.Cl (centres unmarked) [Example 198, 7-(2-ethylbutyl)hexahydro-1H-azepin-2-imine, monohydrochloride] | 2.1 µM | 652 µM | 3.3 µM | ED50 ([4]; determined using iv infusion): 5 mg/kg
CCC1NC(=N)CC1C (centres unmarked) [Example 217, 5-ethyl-4-methylpyrrolidin-2-imine, monohydrochloride] | 0.17 µM | 1.6 µM | 0.25 µM | 
